Experimental findings from paper PMC6028563, “Probing Substituents in the 1- and 3-Position: Tetrahydropyrazino-Annelated Water-Soluble Xanthine Derivatives as Multi-Target Drugs With Potent Adenosine Receptor Antagonistic Activity” (Frontiers in Chemistry, 2018) are described below.

One experiment deals with T1, human A3 AR (Homo sapiens, UniProt P0DMS8).
T1 construct: expressed in transfected cells; host or cells: CHO cells
T1 sequence (P0DMS8 1-318): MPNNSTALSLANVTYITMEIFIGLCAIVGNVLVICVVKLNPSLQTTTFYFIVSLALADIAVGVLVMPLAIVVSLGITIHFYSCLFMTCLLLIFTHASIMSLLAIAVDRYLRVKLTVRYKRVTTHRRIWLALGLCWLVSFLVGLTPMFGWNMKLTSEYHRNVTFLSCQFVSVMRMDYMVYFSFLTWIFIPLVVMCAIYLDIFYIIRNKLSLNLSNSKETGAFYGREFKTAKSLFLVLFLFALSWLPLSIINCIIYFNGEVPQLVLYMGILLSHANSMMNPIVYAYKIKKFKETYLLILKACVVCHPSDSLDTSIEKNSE
In words: Radioligand binding assay at human A3 AR vs. [^3H]PSB-11. Conditions: for Ki: CHO cell membranes, n = 2 (n = 3 where marked a), read-out: Ki ± SEM, A3 vs. [^3H]PSB-11; for inhibition at 10 µM: at 10,000 nM, read-out: % inhibition of radioligand binding at indicated concentration, A3 vs. [^3H]PSB-11. The method, then: (§1) Membrane preparations and radioligand binding assays at rat A1 (rat brain cortex) and rat A2A ARs (rat brain striatum) were performed as previously described (Ozola et al., [2003]; Alnouri et al., [2015]). For assays at human A1, A2A, A2B, and A3 ARs, CHO cell membranes expressing one of the human AR subtypes were used as previously reported (Klotz et al., [1998]; Alnouri et al., [2015]; De Filippo et al., [2016]).
(§2) The synthesized tetrahydropyrazino[2,1-f ]purinediones 13–20 were evaluated in radioligand binding assays for their affinity to A1 ARs of rat brain cortical membrane and to A2A ARs of rat brain striatal membrane preparations. Selected compounds were further investigated for their affinity to human A1 and A2A ARs recombinantly expressed in Chinese hamster ovary (CHO) cells. All compounds were additionally investigated for their affinity to human A2B and A3 ARs recombinantly expressed in CHO cells to determine their AR subtype selectivity. […] It is well known that all xanthine derivatives lacking a ribose moiety, including tricyclic compounds, can only block ARs, but never act as AR agonists; therefore, additional functional studies were not required. […] Potent MAO-B inhibitors were additionally investigated for inhibition of human MAO-A to assess their selectivity. Results are presented in Tables 1–6, and data of standard ligands are included for comparison.

The next experiment concerns the target T2, rat A2A AR (Rattus norvegicus, UniProt P30543).
T2 construct: A2A ARs of rat brain striatal membrane preparations; from tissue; host or cells: rat brain striatum membranes
In words: Radioligand binding assay at rat A2A AR (rat brain striatum) vs. [^3H]MSX-2. To be noted: rat (r); for % inhibition of radioligand binding at indicated concentration, A2A vs. [^3H]MSX-2: at 1,000 nM; for Ki: rat brain striatum, n = 3, read-out: Ki ± SEM, A2A vs. [^3H]MSX-2. The protocol:
as §1, §2

For a further experiment, the target named is T3, rat A1 AR (Rattus norvegicus, UniProt P25099).
T3 construct: A1 ARs of rat brain cortical membrane; from tissue; host or cells: rat brain cortex membranes
T3 sequence (P25099 1-326): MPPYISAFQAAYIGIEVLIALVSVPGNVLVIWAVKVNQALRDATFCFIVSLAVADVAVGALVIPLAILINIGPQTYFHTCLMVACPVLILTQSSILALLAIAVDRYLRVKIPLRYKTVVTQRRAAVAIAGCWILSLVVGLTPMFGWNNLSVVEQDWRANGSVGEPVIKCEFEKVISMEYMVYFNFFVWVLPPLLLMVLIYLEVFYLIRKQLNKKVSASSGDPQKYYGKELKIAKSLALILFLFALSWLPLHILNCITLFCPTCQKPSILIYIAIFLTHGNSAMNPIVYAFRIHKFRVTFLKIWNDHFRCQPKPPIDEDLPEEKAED
In words: Radioligand binding assay at rat A1 AR (rat brain cortex) vs. [^3H]CCPA. Conditions: rat (r); for Ki: rat brain cortex, n = 3; for inhibition at 1.5 µM: read-out: % inhibition of radioligand binding at indicated concentration, A1 vs. [^3H]CCPA, at 1,500 nM. The protocol: as §1, §2

The next experiment has as its target T4, recombinant human MAO-B (Homo sapiens, UniProt P27338).
T4 construct: purchased Sigma-Aldrich M7441; host or cells: baculovirus-infected insect cells
T4 sequence (P27338 1-520): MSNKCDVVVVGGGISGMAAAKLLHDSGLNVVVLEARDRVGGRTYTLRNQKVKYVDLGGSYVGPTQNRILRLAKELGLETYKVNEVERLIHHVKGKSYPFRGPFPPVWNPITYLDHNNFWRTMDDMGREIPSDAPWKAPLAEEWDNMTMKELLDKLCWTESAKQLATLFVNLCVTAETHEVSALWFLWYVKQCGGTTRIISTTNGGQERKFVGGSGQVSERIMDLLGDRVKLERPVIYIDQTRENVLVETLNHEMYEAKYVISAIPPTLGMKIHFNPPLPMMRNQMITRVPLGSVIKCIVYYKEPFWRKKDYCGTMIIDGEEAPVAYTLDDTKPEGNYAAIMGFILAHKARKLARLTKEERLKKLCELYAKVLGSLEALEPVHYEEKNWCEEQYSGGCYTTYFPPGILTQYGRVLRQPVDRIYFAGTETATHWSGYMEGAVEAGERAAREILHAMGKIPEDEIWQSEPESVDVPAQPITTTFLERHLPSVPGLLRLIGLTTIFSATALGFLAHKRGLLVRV
In words: Monoamine oxidase assay (Amplex Red), MAO-B. The format is biochemical. To be noted: for inhibition at 10 µM: at 10,000 nM (10 μM), read-out: % inhibition at indicated concentration, Human MAO-B; for IC50: n = 3, read-out: IC50 ± SEM, Human MAO-B. The method, then: The determination of MAO-A and MAO-B inhibition was performed using commercially available recombinant human MAO-A and MAO-B enzymes expressed in baculovirus-infected insects sells (Sigma-Aldrich, M7316 and M7441) applying the commercially available Amplex® Red monoamine oxidase assay kit (Invitrogen A12214). The assays were performed as previously described. The determination of rat MAO-B inhibition was performed using mitochondrial-enriched fractions from male Sprague Dawley rat livers. […]

The next experiment concerns the target T5, human A2B AR (Homo sapiens, UniProt P29275).
T5 construct: expressed in transfected cells; host or cells: CHO cells
T5 sequence (P29275 1-332): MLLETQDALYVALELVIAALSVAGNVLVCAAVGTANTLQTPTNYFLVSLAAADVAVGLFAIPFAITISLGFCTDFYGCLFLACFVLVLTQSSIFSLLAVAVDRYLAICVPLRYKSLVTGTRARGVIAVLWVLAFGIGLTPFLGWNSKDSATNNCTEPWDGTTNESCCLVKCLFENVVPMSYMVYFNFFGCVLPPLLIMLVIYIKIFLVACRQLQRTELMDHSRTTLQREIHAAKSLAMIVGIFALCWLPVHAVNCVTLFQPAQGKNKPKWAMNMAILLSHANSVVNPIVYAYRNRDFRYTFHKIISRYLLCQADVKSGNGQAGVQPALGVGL
In words: Radioligand binding assay at human A2B AR vs. [^3H]PSB-603. To be noted: for Ki: CHO cell membranes, n = 2 (n = 3 where marked a), read-out: Ki ± SEM, A2B vs. [^3H]PSB-603; for inhibition at 1 µM: at 1,000 nM. The method, then:
as §1, §2

[1] abbreviates: read-out: % inhibition of radioligand binding at indicated concentration, A2B vs. [^3H]PSB-603.

In general, Ki refers to the equilibrium dissociation constant of an inhibitor or competing ligand from its target. As usually defined, the IC50 is the concentration needed to halve the response being measured.

T2 sequence (P30543 whole entry): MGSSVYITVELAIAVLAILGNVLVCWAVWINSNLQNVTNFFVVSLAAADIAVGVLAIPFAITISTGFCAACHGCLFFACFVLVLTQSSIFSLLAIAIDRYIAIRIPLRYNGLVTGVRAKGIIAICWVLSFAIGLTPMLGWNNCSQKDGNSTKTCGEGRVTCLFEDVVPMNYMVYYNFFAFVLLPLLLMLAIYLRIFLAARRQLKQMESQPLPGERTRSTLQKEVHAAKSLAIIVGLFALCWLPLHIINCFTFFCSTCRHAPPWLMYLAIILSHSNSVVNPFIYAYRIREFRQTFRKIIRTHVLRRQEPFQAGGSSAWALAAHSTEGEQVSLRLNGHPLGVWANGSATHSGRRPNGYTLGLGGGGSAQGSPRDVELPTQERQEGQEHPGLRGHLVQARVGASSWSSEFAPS

For `Cn1c(=O)[nH]c(=O)c2c1nc1n2CCN(Cc2cccc(C(F)(F)F)c2)C1` [Compound 13b, 1-methyl-8-(3-(trifluoromethyl)benzyl)-6,7,8,9-tetrahydropyrazino[2,1-f]purine-2,4(1H,3H)-dione], at human A3 AR, the Ki was more than 10000 nM and the inhibition at 10 µM was found to be 35%. Further, at rat A2A AR, the “% inhibition of radioligand binding at indicated concentration, A2A vs. [^3H]MSX-2” value (shortened to “% inhibition of radioligand binding”) is recorded as 5% and the inhibition constant Ki is more than 1000 nM. For the same compound, on rat A1 AR, the Ki was more than 1500 nM and the inhibition at 1.5 µM was -1%. In addition, at recombinant human MAO-B, the inhibition at 10 µM was 14% and the IC50 was more than 10000 nM. Moreover, the Ki on human A2B AR was more than 1000 nM. The inhibition at 1 µM at human A2B AR (setting [1]) amounted to 2%.

On to `Cn1c(=O)[nH]c(=O)c2c1nc1n2CCN(CCc2cccc(Cl)c2)C1` [Compound 13c, 8-(3-chlorophenethyl)-1-methyl-6,7,8,9-tetrahydropyrazino[2,1-f]purine-2,4(1H,3H)-dione], for which the Ki at human A3 AR was more than 10000 nM; on rat A2A AR it was more than 1000 nM; on rat A1 AR it was more than 1500 nM; at human A2B AR it was more than 1000 nM. The inhibition at 10 µM at human A3 AR amounted to 49%; at recombinant human MAO-B, 54%. In addition, the “% inhibition of radioligand binding” value at rat A2A AR is reported as 1%. Further, the inhibition at 1.5 µM on rat A1 AR was found to be 3%. Besides, on recombinant human MAO-B, the IC50 is approximately 10000 nM. Besides, the inhibition at 1 µM at human A2B AR (setting [1]) is 18%.

Consider `Cn1c(=O)[nH]c(=O)c2c1nc1n2CCN(CCc2cccc(Br)c2)C1` [Compound 13d, 8-(3-bromophenethyl)-1-methyl-6,7,8,9-tetrahydropyrazino[2,1-f]purine-2,4(1H,3H)-dione], for which the Ki on human A3 AR was approximately 10000 nM; at rat A2A AR it was more than 1000 nM; on rat A1 AR, more than 1500 nM; at human A2B AR it was more than 1000 nM. Besides, the inhibition at 10 µM on human A3 AR amounted to 45%. Besides, the “% inhibition of radioligand binding” value on rat A2A AR came out at 15%. The inhibition at 1.5 µM at rat A1 AR worked out at 1%. Moreover, the inhibition at 1 µM on human A2B AR (setting [1]) came to 1%.

In the case of `Cn1c(=O)[nH]c(=O)c2c1nc1n2CCN(CCc2cccc(C(F)(F)F)c2)C1` [Compound 13e, 1-methyl-8-(3-(trifluoromethyl)phenethyl)-6,7,8,9-tetrahydropyrazino[2,1-f]purine-2,4(1H,3H)-dione], at human A3 AR, the inhibition constant Ki was more than 10000 nM and the inhibition at 10 µM was 39%. Besides, at rat A2A AR, the “% inhibition of radioligand binding” value is on record as 4% and the Ki is more than 1000 nM. In addition, at rat A1 AR, the inhibitory constant (Ki) was more than 1500 nM and the inhibition at 1.5 µM stood at 9%. At recombinant human MAO-B, the inhibition at 10 µM worked out at 47% and the IC50 was approximately 10000 nM. For the same compound, the Ki at human A2B AR was more than 300 nM. Also, the inhibition at 0.3 µM at human A2B AR (at 300 nM, read-out: % inhibition of radioligand binding at indicated concentration, A2B vs. [^3H]PSB-603) amounted to 8%.

Consider `CCn1c(=O)c2c(nc3n2CCN(Cc2ccc(C(F)(F)F)cc2)C3)n(C)c1=O` [Compound 14f, 3-ethyl-1-methyl-8-(4-(trifluoromethyl)benzyl)-6,7,8,9-tetrahydropyrazino[2,1-f]purine-2,4(1H,3H)-dione], for which the inhibitory constant (Ki) at human A3 AR was 18600 nM. Further, on rat A2A AR, the “% inhibition of radioligand binding” value is given as 7% and the inhibitory constant (Ki) was more than 1000 nM. In addition, on rat A1 AR, the inhibition constant Ki was more than 1500 nM and the inhibition at 1.5 µM was 9%. Further, at recombinant human MAO-B, the inhibition at 10 µM stood at 32% and the 50% inhibitory concentration (IC50) is more than 10000 nM. In addition, the Ki at human A2B AR is more than 100 nM. Besides, the inhibition at 0.1 µM at human A2B AR (at 100 nM, read-out: % inhibition of radioligand binding at indicated concentration, A2B vs. [^3H]PSB-603) stood at 1%.

In the case of `CCn1c(=O)c2c(nc3n2CCN(Cc2ccc(Cl)cc2C(F)(F)F)C3)n(CC)c1=O` [Compound 15o, 8-(4-chloro-2-(trifluoromethyl)benzyl)-1,3-diethyl-6,7,8,9-tetrahydropyrazino[2,1-f]purine-2,4(1H,3H)-dione], the inhibitory constant (Ki) at human A3 AR is 1690 nM. At rat A2A AR, the “% inhibition of radioligand binding” value was determined as 19% and the Ki is more than 1000 nM. For the same compound, at rat A1 AR, the inhibition constant (Ki) is more than 1500 nM and the inhibition at 1.5 µM was 41%. Further, on recombinant human MAO-B, the inhibition at 10 µM came to 5% and the concentration for half-maximal inhibition (IC50) was more than 10000 nM. Besides, the inhibition constant Ki on human A2B AR is more than 1000 nM. For the same compound, the inhibition at 1 µM at human A2B AR (setting [1]) was determined as 16%.
